One test has as its system CT26 tumor cells. Put plainly: In vivo anti-tumor efficacy, CT26 colorectal carcinoma mouse allograft model. The arrangement: species or system BALB/C mice. Here is the method: The efficacy of the SIRPα-Fc-CD40L chimeric protein was evaluated in combination with a spindle toxin. Towards that, the ability of paclitaxel and chimeric proteins to target and reduce tumor volume in vivo was determined. Briefly, BALB/C mice were inoculated with 500,000 CT26 tumor cells. When tumor volumes were approximately 50 to 60 mm^3 (day 0), the mice were randomly distributed in the following treatment groups: (1) vehicle only control, (2) 300 μg of the SIRPα-Fc-CD40L chimeric protein alone, (3) 24 mg/kg paclitaxel alone, and (4) a combination 300 μg of the SIRPα-Fc-CD40L chimeric protein and 24 mg/kg paclitaxel. The mice were dosed on days 0, 3 and 6 via intraperitoneal injections. Tumors were measured with electronic calipers on day 14 and plotted using the GraphPad Prism software.
The efficacy of the SIRPα-Fc-CD40L chimeric protein was evaluated in combination with an antimetabolite or. Towards that, the ability of 5-fluorouracil and chimeric proteins to target and reduce tumor volume in vivo was determined. Briefly, BALB/C mice were inoculated with 500,000 CT26 tumor cells. When tumor volumes were approximately 50 to 60 mm^3 (day 0), the mice were randomly distributed in the following treatment groups: (1) vehicle only control, (2) 300 μg of the SIRPα-Fc-CD40L chimeric protein alone, (3) 20 mg/kg 5-fluorouracil alone, and (4) a combination 300 μg of the SIRPα-Fc-CD40L chimeric protein and 20 mg/kg 5-fluorouracil. The mice were dosed via intraperitoneal injections as follows: the SIRPα-Fc-CD40L chimeric protein was administered on days 0, 3 and 6; and 5-fluorouracil was administered on days 0, 2 and 4. Tumors were measured with electronic calipers on day 11 and plotted using the GraphPad Prism software.
The efficacy of the SIRPα-Fc-CD40L chimeric protein was evaluated in combination with a topoisomerase I inhibitor. Towards that, the ability of irinotecan and chimeric proteins to target and reduce tumor volume in vivo was determined. Briefly, BALB/C mice were inoculated with 500,000 CT26 tumor cells. When tumor volumes were approximately 50 to 60 mm^3 (day 0), the mice were randomly distributed in the following treatment groups: (1) vehicle only control, (2) 300 μg of the SIRPα-Fc-CD40L chimeric protein alone, (3) 25 mg/kg irinotecan alone, and (4) a combination 300 μg of the SIRPα-Fc-CD40L chimeric protein and 25 mg/kg irinotecan. The mice were dosed on days 0 and 2 via intraperitoneal injections. Tumors were measured with electronic calipers on day 4 and plotted using the GraphPad Prism software.
The efficacy of the SIRPα-Fc-CD40L chimeric protein was evaluated in combination with an anthracycline. Towards that, the ability of doxorubicin and chimeric proteins to target and reduce tumor volume in vivo was determined. Briefly, BALB/C mice were inoculated with 500,000 CT26 tumor cells. When tumor volumes were approximately 50 to 60 mm^3 (day 0), the mice were randomly distributed in the following treatment groups: (1) vehicle only control, (2) 300 μg of the SIRPα-Fc-CD40L chimeric protein alone, (3) 8 mg/kg doxorubicin alone, and (4) a combination 300 μg of the SIRPα-Fc-CD40L chimeric protein and 8 mg/kg doxorubicin. The mice were dosed with the SIRPα-Fc-CD40L chimeric protein on days 0, 3 and 6 via intraperitoneal injections, and with doxorubicin thrice through the tail vein. Tumors were measured with electronic calipers on day 7 and plotted using the GraphPad Prism software.
The efficacy of the SIRPα-Fc-CD40L chimeric protein was evaluated in combination with a platinum compound. Towards that, the ability of cisplatin and chimeric proteins to target and reduce tumor volume in vivo was determined. Briefly, BALB/C mice were inoculated with 500,000 CT26 tumor cells. […]

The test system of test [1] is MM1R human multiple myeloma (MM) cells. Put plainly: Phagocytosis of MM1R cells by human macrophages (flow cytometry): bortezomib and/or SIRPα-Fc-CD40L. It is filed as cell-based. The following applies: 1 pM bortezomib overnight and/or SIRPα-Fc-CD40L for 4 hours; combination p<0.0001 vs control; FIG. 3A. Here is the method:
(§1) Briefly, the MM1R human multiple myeloma (MM) cells were labeled with a green fluorescent tracker and treated with vehicle alone control or 1 pM bortezomib overnight. The following day, the tumor cells were washed in PBS and then co-cultured with human macrophages with or without the SIRPα-Fc-CD40L chimeric protein for 4 hours at 37° C. in the presence of 5% CO2. After this incubation, the cells were harvested and treated with an anti-CD11b antibody (a macrophage marker) and were analyzed using flow cytometry. Positive phagocytosis was determined by the overlap in signals of tumor (the green fluorescent tracker) and macrophage (anti-CD11b antibody staining). A phagocytosis index was calculated by setting the maximum phagocytosis value to 1, and then normalizing all other replicates accordingly. The phagocytosis index was plotted for the indicated treatments.
In general terms: In flow cytometry, cells or beads pass a laser one at a time.

Test [2] relates to ARD1 human multiple myeloma (MM) cells. Briefly: Phagocytosis of ARD1 cells by human macrophages (flow cytometry): bortezomib and/or SIRPα-Fc-CD40L. It is filed as cell-based. The following applies: 1 pM bortezomib overnight and/or SIRPα-Fc-CD40L for 4 hours; combination p<0.0001 vs control; FIG. 3B. The method, then: as §1, with “In another experiment,” for “Briefly,”, “ARD1” for “MM1R”

For test [3], the system named is KMS12B multiple myeloma cells. Briefly: Phagocytosis of KMS12B cells by M1 macrophages with activated T cells (flow cytometry): pomalidomide with or without SIRPα-Fc-CD40L. It is filed as cell-based, human. The settings on record: 10 μM pomalidomide, CD3/CD28 activated T cells, M1 polarized macrophages, 4 hours; FIG. 7. Here is the method: Briefly, CD14+ monocytes were isolated from human donor PBMCs and cultured with m-CSF (100 ng/ml) for 6 days. On day 6, IFNγ (100 ng/ml) and LPS (10 ng/ml) were added to the cells for an additional 24 hours, generating M1 polarized macrophages. On day 5 of the macrophage differentiation, another vial of PBMCs from the same human donor was thawed, and CD3 T cells were isolated using a magnetic bead isolation kit. These T cells were activated for 2 days with CD3/CD28 T cell magnetic activation beads. On day 7 when both the macrophages and T cells were activated and ready, they were combined with KMS12B multiple myeloma cells, which were labeled with a green fluorescent tracker, with 10 μM pomalidomide and with or without 50 μg/ml of the SIPRα-Fc-CD40L chimeric protein. KMS12B cells incubated with the macrophages and 10 μM pomalidomide, without T cells, were used as a negative control. This coculture was incubated for 4 hours at 37° C., 5% CO2. After this incubation, the cells were harvested and treated with an anti-CD11b antibody (a macrophage marker) and were analyzed using flow cytometry. Positive phagocytosis was determined by the overlap in signals of tumor (the green fluorescent tracker) and macrophage (anti-CD11b antibody staining). A phagocytosis index was calculated by setting the maximum phagocytosis value to 1, and then normalizing all other replicates accordingly. […]

In test [4] the test system is ARD1 human multiple myeloma (MM) cells. Briefly: Phagocytosis of ARD1 cells by human macrophages (IncuCyte phRodo Red imaging): daratumumab and/or SIRPα-Fc-CD40L. The following applies: 1 μg/ml daratumumab and/or 10 μg/ml SIRPα-Fc-CD40L, 2 hours, combination p<0.0001 vs vehicle, FIG. 6. It is filed as cell-based. Here is the method: Briefly, the ARD1 human multiple myeloma (MM) cells were labeled the IncuCyte phRodo Red cell labeling kit and co-cultured with human macrophages and treated with (1) vehicle alone control, (2) 10 μg/ml of the SIRPα-Fc-CD40L chimeric protein, (3) 1 μg/ml of daratumumab (an antibody-dependent cellular phagocytosis (ADCP)-proficient anti-CD38 antibody), or (4) 1 μg/ml of an daratumumab and 10 μg/ml of the SIRPα-Fc-CD40L chimeric protein and incubated at 37° C. in the presence of 5% CO2 for 2 hours. Cultures were imaged using the IncuCyte time-lapse microscopy system, and positive phagocytosis was determined by an increase in red fluorescent intensity which occurs when the phRodo Red labeled tumor cell is internalized into the acidic macrophage phagosome. A phagocytosis index was calculated by setting the maximum phagocytosis value to 1, and then normalizing all other replicates accordingly. The phagocytosis index was plotted for the indicated treatments.

Test [5] relates to ARD1 human multiple myeloma cells. Put plainly: Phagocytosis of ARD1 cells by human macrophages (flow cytometry): elotuzumab and/or SIRPα-Fc-CD40L. It is filed as cell-based. The following applies: 1 μg/ml elotuzumab and/or SIRPα-Fc-CD40L (10 μg/ml alone; 10 pg/ml in the combination), 4 hours; combination p<0.05 vs vehicle; FIG. 8. Here is the method:
Briefly, the ARD1 human multiple myeloma cells were labeled with a green fluorescent tracker and co-cultured with human macrophages and treated with (1) vehicle alone control, (2) 10 μg/ml of the SIRPα-Fc-CD40L chimeric protein, (3) 1 μg/ml of elotuzumab (an antibody-dependent cellular phagocytosis (ADCP)-proficient anti-SLAMF7 antibody), or (4) 1 μg/ml of elotuzumab and 10 pg/ml of the SIRPα-Fc-CD40L chimeric protein and incubated at 37° C. in the presence of 5% CO2 for 4 hours. After this incubation, the cells were harvested and treated with an anti-CD11b antibody (a macrophage marker) and were analyzed using flow cytometry. Positive phagocytosis was determined by the overlap in signals of tumor (the green fluorescent tracker) and macrophage (anti-CD11b antibody staining). A phagocytosis index was calculated by setting the maximum phagocytosis value to 1, and then normalizing all other replicates accordingly. The phagocytosis index was plotted for the indicated treatments.

As for `O=c1[nH]cc(F)c(=O)[nH]1` [5-fluorouracil], in the test on CT26 tumor cells (day 11, 300 μg SIRPα-Fc-CD40L (days 0, 3, 6) and/or 20 mg/kg 5-fluorouracil (days 0, 2, 4), intraperitoneal, combination vs vehicle p<0.01, vs 5-fluorouracil alone p<0.05, FIG. 10B), the tumor size result is given as “reduction in tumor size”.
Turning to `CC(C)C[C@H](NC(=O)[C@H](Cc1ccccc1)NC(=O)c1cnccn1)B(O)O` [bortezomib], the “level of phagocytosis (phagocytosis index) compared to the control MM1R cells” value in test [1] is reported as “increased level of phagocytosis”. For the same compound, in test [2], the “level of phagocytosis (phagocytosis index) compared to the control ARD1 cells” value is on record as “increased level of phagocytosis”.
Consider `N.N.[Cl][Pt][Cl]` [cisplatin], for which, in the test on CT26 tumor cells (day 4, 300 μg SIRPα-Fc-CD40L (days 0 and 3) and/or 200 μg cisplatin (day 0), intraperitoneal, FIG. 10E), the tumor size result was “reduction in tumor size”.
With `COc1cccc2c1C(=O)c1c(O)c3c(c(O)c1C2=O)C[C@@](O)(C(=O)CO)C[C@@H]3O[C@H]1C[C@H](N)[C@H](O)[C@H](C)O1` [doxorubicin], the tumor size entry in the test with CT26 tumor cells (day 7, 300 μg SIRPα-Fc-CD40L (intraperitoneal, days 0, 3, 6) and/or 8 mg/kg doxorubicin (thrice, tail vein), FIG. 10D) is listed as “reduction in tumor size”.
With `CCc1c2c(nc3ccc(OC(=O)N4CCC(N5CCCCC5)CC4)cc13)-c1cc3c(c(=O)n1C2)COC(=O)[C@]3(O)CC` [irinotecan], the tumor size entry in the test on CT26 tumor cells (day 4, 300 μg SIRPα-Fc-CD40L and/or 25 mg/kg irinotecan, intraperitoneal, days 0 and 2, FIG. 10C) is “reduction in tumor size”.
In the case of `O=C1[O][Pt]2([NH][C@@H]3CCCC[C@H]3[NH]2)[O]C1=O` [oxaliplatin], the tumor size entry in the test on CT26 tumor cells (day 4, 300 μg SIRPα-Fc-CD40L (days 0 and 3) and/or 10 mg/kg oxaliplatin (day 0), intraperitoneal, FIG. 10F) was “reduction in tumor size”.
As for `CC(=O)O[C@H]1C(=O)[C@@]2(C)[C@H]([C@H](OC(=O)c3ccccc3)[C@]3(O)C[C@H](OC(=O)[C@H](O)[C@@H](NC(=O)c4ccccc4)c4ccccc4)C(C)=C1C3(C)C)[C@]1(OC(C)=O)CO[C@@H]1C[C@@H]2O` [paclitaxel], the tumor size entry in the test with CT26 tumor cells (day 14, 300 μg SIRPα-Fc-CD40L and/or 24 mg/kg paclitaxel, intraperitoneal, days 0, 3 and 6, FIG. 10A) is “reduction in tumor size”.
In the case of `Nc1cccc2c1C(=O)N(C1CCC(=O)NC1=O)C2=O` (centres unmarked) [pomalidomide], the “phagocytosis of KMS12B cells incubated with T cells, macrophages and pomalidomide compared to incubation without T cells (negative control)” value in test [3] is “increased phagocytosis”.
Regarding “daratumumab: an antibody-dependent cellular phagocytosis (ADCP)-proficient anti-CD38 antibody”, the “level of phagocytosis (phagocytosis index) compared to the vehicle only-treated ARD1 cells” value in test [4] is given as “increased level of phagocytosis”.
Take “elotuzumab: an antibody-dependent cellular phagocytosis (ADCP)-proficient anti-SLAMF7 antibody”: the “level of phagocytosis (phagocytosis index) compared to the vehicle only-treated ARD1 cells” value in test [5] is “increased level of phagocytosis”.

The record behind these values is patent US20240299492A1, “COMBINATION THERAPIES WITH SIRP ALPHA-BASED CHIMERIC PROTEINS” (Shattuck Labs, Inc., priority 2021, published 2024).
